The values that follow are results of earlier work, collected in patent US20090012284A1, “Process for the Preparation of a Piroxicam: Betacyclodextrin Inclusion Compound” (Chiesi Farmaceutici S.p.A., priority 2004, published 2009).

The conditions of this data set: pH 5, 37° C.

Regarding `CN1C(C(=O)Nc2ccccn2)=C(O)c2ccccc2S1(=O)=O` [Piroxicam], the solubility in water is 0.003%.
